Converted amounts (≈) assume the structure as drawn. Like-named read-outs stand apart in the source and are kept apart here. Non-standard residues stand in square brackets, D forms with d. Residues, ends and D or L forms follow the SMILES beside them. ξ: configuration not given here. Trp(5-F) = N[C@@H](Cc1c[nH]c2ccc(F)cc12)C(=O)O; dTrp(5-F) = N[C@H](Cc1c[nH]c2ccc(F)cc12)C(=O)O; ξTrp(7-aza) = NC(Cc1c[nH]c2ncccc12)C(=O)O
Assays:
Type in all cases: cell-based
[1] = system: Pseudomonas aeruginosa (ATCC 27853)
Text: (§1) The bacterial strains for the antimicrobial assay were obtained from the ATCC (American Type Culture Collection, Manassas, VA, USA) and NCTC (National Collection of Type Cultures, Salisbury, UK). Gram-negative strains were Pseudomonas aeruginosa (ATCC 27853), Escherichia coli (ATCC 8739, ATCC 35218, and ATCC 25922), Salmonella enterica (ATCC 13076), Klebsiella pneumoniae (NCTC 13440), Acinetobacter baumannii (ATCC 17978) and the Gram-positive strains were Enterococcus faecalis (ATCC 29212), Listeria monocytogenes (ATCC 19111), and Staphylococcus aureus (HNCMO112011 and ATCC 25923).
(§2) Determination of antibacterial activity for the peptides was carried out by utilizing a minimum bactericidal concentration (MBC) bioassay. Synthesized peptides were dissolved in sterile water and used from 25 to 0.125 μM in 2-fold dilution series and incubated with ~10^7 log phase bacteria in Potassium-Phosphate Buffer (PPB, pH: 7.4) for three hours as described earlier. After that, 5 μl of each sample was placed on LB agar and the growth of bacteria was monitored after overnight incubation at 37 °C. The lowest concentration of the antimicrobial agents that completely eliminated viable bacteria was considered the minimal bactericidal concentration (MBC).

[2] = system: Enterococcus faecalis (ATCC 29212)
Text: as §1, §2

[3] = system: tested bacteria (ESKAPE pathogens, Listeria monocytogenes, Salmonella enterica)
Text: as §1, §2

[4] = system: Listeria monocytogenes (ATCC 19111)
Text: as §1, §2

[5] = system: Acinetobacter baumannii (ATCC 17978)
Text: as §1, §2

[6] = system: Escherichia coli (ATCC 8739)
Text: as §1, §2

[7] = system: Staphylococcus aureus (HNCMO112011)
Text: as §1, §2

[8] = system: Salmonella enterica (ATCC 13076)
Text: as §1, §2

[9] = system: Klebsiella pneumoniae (NCTC 13440)
Text: as §1, §2

[10] = summary over the tested bacterial species, 3 h in PPB pH 7.4
[11] = Klebsiella pneumoniae NCTC 13440, ~10^7 log phase bacteria, 3 h in PPB pH 7.4, peptide 25 to 0.125 μM 2-fold series, plated on LB agar, overnight 37 °C

Row | Compound | Minimal bactericidal concentration (MBC) P. a. ([1]; ATCC 27853, 3 h, pH 7.4) [µM] | Minimal bactericidal concentration (MBC) E. f. ([2]; ATCC 29212, 3 h, pH 7.4) [µM] | MBC against most or all of the tested bacteria [3, 10] | Minimal bactericidal concentration (MBC) L. m. ([4]; ATCC 19111, 3 h, pH 7.4) [µM] | Minimal bactericidal concentration (MBC) A. b. ([5]; ATCC 17978, 3 h, pH 7.4) [µM] | Minimal bactericidal concentration (MBC) E. c. ([6]; ATCC 8739, 3 h, pH 7.4) [µM] | Minimal bactericidal concentration (MBC) S. a. ([7]; HNCMO112011, 3 h, pH 7.4) [µM] | Minimal bactericidal concentration (MBC) S. e. ([8]; ATCC 13076, 3 h, pH 7.4) [µM] | Minimal bactericidal concentration (MBC) K. p. ([9]; NCTC 13440, 3 h, pH 7.4) [µM] | Minimal bactericidal concentration (MBC) P. a. ([1]; Pseudomonas aeruginosa ATCC 27853, ~10^7 log phase bacteria, 3 h in PPB pH 7.4, peptide 25 to 0.125 μM 2-fold series, plated on LB agar, overnight 37 °C) [µM] | Minimal bactericidal concentration (MBC) E. f. ([2]; Enterococcus faecalis ATCC 29212, ~10^7 log phase bacteria, 3 h in potassium-phosphate buffer (PPB) pH 7.4, peptide 25 to 0.125 μM 2-fold series, 5 μl on LB agar, overnight 37 °C) [µM] | Minimal bactericidal concentration (MBC) L. m. ([4]; Listeria monocytogenes ATCC 19111, ~10^7 log phase bacteria, 3 h in PPB pH 7.4, peptide 25 to 0.125 μM 2-fold series, plated on LB agar, overnight 37 °C) [µM] | Minimal bactericidal concentration (MBC) A. b. ([5]; Acinetobacter baumannii ATCC 17978, ~10^7 log phase bacteria, 3 h in PPB pH 7.4, peptide 25 to 0.125 μM 2-fold series, plated on LB agar, overnight 37 °C) [µM] | Minimal bactericidal concentration (MBC) E. c. ([6]; Escherichia coli ATCC 8739, ~10^7 log phase bacteria, 3 h in PPB pH 7.4, peptide 25 to 0.125 μM 2-fold series, plated on LB agar, overnight 37 °C) [µM] | Minimal bactericidal concentration (MBC) S. a. ([7]; Staphylococcus aureus HNCMO112011, ~10^7 log phase bacteria, 3 h in PPB pH 7.4, peptide 25 to 0.125 μM 2-fold series, plated on LB agar, overnight 37 °C) [µM] | Minimal bactericidal concentration (MBC) S. e. ([8]; Salmonella enterica ATCC 13076, ~10^7 log phase bacteria, 3 h in PPB pH 7.4, peptide 25 to 0.125 μM 2-fold series, plated on LB agar, overnight 37 °C) [µM] | Minimal bactericidal concentration (MBC) K. p. [9, 11] [µM] | MBC against most or all of the tested bacteria ([3]; 3 h, pH 7.4) [µM]
1 | CC[C@H](C)[C@H](NC(=O)[C@H](CCCCN)NC(=O)[C@H](Cc1ccccc1)NC(=O)[C@H](CC(C)C)NC(=O)[C@@H]1CCCN1C(=O)[C@H](CCCCN)NC(=O)[C@H](CCCCN)NC(=O)[C@H](CO)NC(=O)[C@@H](N)CCCCN)C(=O)N[C@H](Cc1c[nH]c2ccc(F)cc12)C(=O)N[C@@H](CCCCN)C(=O)N[C@@H](CO)C(=O)N[C@H](C(=O)N[C@@H](CCC(=O)O)C(=O)N[C@@H](CC(N)=O)C(=O)N[C@H](C(=O)N[C@@H](CO)C(=O)N[C@H](C(=O)N[C@@H](CC(C)C)C(=O)N[C@@H](Cc1c[nH]c2ccccc12)C(=O)N[C@@H](Cc1ccc(O)cc1)C(=O)N[C@@H](CCCCN)C(N)=O)C(C)C)C(C)C)C(C)C [NCR169C17–38C12,17/S-10W^5-F-D] (H-KSKKPLFKI[dTrp(5-F)]KSVENVSVLWYK-NH2; N-terminus assumed) | 3.1 (≈ 8.45 µg/mL) | 1.6 (≈ 4.36 µg/mL) | 1.6—6.3 µM | 6.3 (≈ 17.2 µg/mL) | 1.6 (≈ 4.36 µg/mL) | 1.6 (≈ 4.36 µg/mL) | 3.1 (≈ 8.45 µg/mL) | 3.1 (≈ 8.45 µg/mL) | 3.1 (≈ 8.45 µg/mL) | – | – | – | – | – | – | – | – | –
2 | KSKKPLFKIWKSVENVSVLW^5-MeOYK [NCR169C17–38C12,17/S-20W^5-MeO, NCR169C17–38C12,17/S analog with 5-methoxy tryptophan at position 20, forms not separated] | – | – | 3.1 µM | – | – | – | – | – | – | 0.8 | 3.1 | 3.1 | 3.1 | 3.1 | 3.1 | 3.1 | 3.1 | –
3 | CC[C@H](C)[C@H](NC(=O)[C@H](CCCCN)NC(=O)[C@H](Cc1ccccc1)NC(=O)[C@H](CC(C)C)NC(=O)[C@@H]1CCCN1C(=O)[C@H](CCCCN)NC(=O)[C@H](CCCCN)NC(=O)[C@H](CO)NC(=O)[C@@H](N)CCCCN)C(=O)N[C@@H](Cc1c[nH]c2ccc(F)cc12)C(=O)N[C@@H](CCCCN)C(=O)N[C@@H](CO)C(=O)N[C@H](C(=O)N[C@@H](CCC(=O)O)C(=O)N[C@@H](CC(N)=O)C(=O)N[C@H](C(=O)N[C@@H](CO)C(=O)N[C@H](C(=O)N[C@@H](CC(C)C)C(=O)N[C@@H](Cc1c[nH]c2ccccc12)C(=O)N[C@@H](Cc1ccc(O)cc1)C(=O)N[C@@H](CCCCN)C(N)=O)C(C)C)C(C)C)C(C)C [NCR169C17–38C12,17/S-10W^5-F-L] (H-KSKKPLFKI[Trp(5-F)]KSVENVSVLWYK-NH2; N-terminus assumed) | 1.6 (≈ 4.36 µg/mL) | 1.6 (≈ 4.36 µg/mL) | 1.6—6.3 µM | 1.6 (≈ 4.36 µg/mL) | 1.6 (≈ 4.36 µg/mL) | 1.6 (≈ 4.36 µg/mL) | 1.6 (≈ 4.36 µg/mL) | 1.6 (≈ 4.36 µg/mL) | 3.1 (≈ 8.45 µg/mL) | – | – | – | – | – | – | – | 3.1 (≈ 8.45 µg/mL) | 1.6
4 | CC[C@H](C)[C@H](NC(=O)[C@H](CCCCN)NC(=O)[C@H](Cc1ccccc1)NC(=O)[C@H](CC(C)C)NC(=O)[C@@H]1CCCN1C(=O)[C@H](CCCCN)NC(=O)[C@H](CCCCN)NC(=O)[C@H](CO)NC(=O)[C@@H](N)CCCCN)C(=O)N[C@@H](Cc1c[nH]c2ccccc12)C(=O)N[C@@H](CCCCN)C(=O)N[C@@H](CO)C(=O)N[C@H](C(=O)N[C@@H](CCC(=O)O)C(=O)N[C@@H](CC(N)=O)C(=O)N[C@H](C(=O)N[C@@H](CO)C(=O)N[C@H](C(=O)N[C@@H](CC(C)C)C(=O)NC(Cc1c[nH]c2ncccc12)C(=O)N[C@@H](Cc1ccc(O)cc1)C(=O)N[C@@H](CCCCN)C(N)=O)C(C)C)C(C)C)C(C)C (some centres unmarked) [NCR169C17–38C12,17/S-20W^7-Aza II] (H-KSKKPLFKIWKSVENVSVL[ξTrp(7-aza)]YK-NH2; N-terminus assumed) | 12.5 (≈ 33.9 µg/mL) | 12.5 (≈ 33.9 µg/mL) | – | 12.5 (≈ 33.9 µg/mL) | 12.5 (≈ 33.9 µg/mL) | 12.5 (≈ 33.9 µg/mL) | 12.5 (≈ 33.9 µg/mL) | 12.5 (≈ 33.9 µg/mL) | 12.5 (≈ 33.9 µg/mL) | – | – | – | – | – | – | – | – | 12.5
5 | CC[C@H](C)[C@H](NC(=O)[C@H](CCCCN)NC(=O)[C@H](Cc1ccccc1)NC(=O)[C@H](CC(C)C)NC(=O)[C@@H]1CCCN1C(=O)[C@H](CCCCN)NC(=O)[C@H](CCCCN)NC(=O)[C@H](CO)NC(=O)[C@@H](N)CCCCN)C(=O)NC(Cc1c[nH]c2ncccc12)C(=O)N[C@@H](CCCCN)C(=O)N[C@@H](CO)C(=O)N[C@H](C(=O)N[C@@H](CCC(=O)O)C(=O)N[C@@H](CC(N)=O)C(=O)N[C@H](C(=O)N[C@@H](CO)C(=O)N[C@H](C(=O)N[C@@H](CC(C)C)C(=O)N[C@@H](Cc1c[nH]c2ccccc12)C(=O)N[C@@H](Cc1ccc(O)cc1)C(=O)N[C@@H](CCCCN)C(N)=O)C(C)C)C(C)C)C(C)C (some centres unmarked) [NCR169C17–38C12,17/S-10W^7-Aza I] (H-KSKKPLFKI[ξTrp(7-aza)]KSVENVSVLWYK-NH2; N-terminus assumed) | 3.1 (≈ 8.4 µg/mL) | 6.3 (≈ 17.1 µg/mL) | – | 3.1 (≈ 8.4 µg/mL) | 3.1 (≈ 8.4 µg/mL) | 3.1 (≈ 8.4 µg/mL) | 3.1 (≈ 8.4 µg/mL) | 3.1 (≈ 8.4 µg/mL) | 6.3 (≈ 17.1 µg/mL) | – | – | – | – | – | – | – | – | 3.1
6 | CC[C@H](C)[C@H](NC(=O)[C@H](CCCCN)NC(=O)[C@H](Cc1ccccc1)NC(=O)[C@H](CC(C)C)NC(=O)[C@@H]1CCCN1C(=O)[C@H](CCCCN)NC(=O)[C@H](CCCCN)NC(=O)[C@H](CO)NC(=O)[C@@H](N)CCCCN)C(=O)NC(Cc1c[nH]c2ncccc12)C(=O)N[C@@H](CCCCN)C(=O)N[C@@H](CO)C(=O)N[C@H](C(=O)N[C@@H](CCC(=O)O)C(=O)N[C@@H](CC(N)=O)C(=O)N[C@H](C(=O)N[C@@H](CO)C(=O)N[C@H](C(=O)N[C@@H](CC(C)C)C(=O)N[C@@H](Cc1c[nH]c2ccccc12)C(=O)N[C@@H](Cc1ccc(O)cc1)C(=O)N[C@@H](CCCCN)C(N)=O)C(C)C)C(C)C)C(C)C (some centres unmarked) [NCR169C17–38C12,17/S-10W^7-Aza II] (H-KSKKPLFKI[ξTrp(7-aza)]KSVENVSVLWYK-NH2; N-terminus assumed) | 3.1 (≈ 8.4 µg/mL) | 3.1 (≈ 8.4 µg/mL) | – | 3.1 (≈ 8.4 µg/mL) | 6.3 (≈ 17.1 µg/mL) | 3.1 (≈ 8.4 µg/mL) | 3.1 (≈ 8.4 µg/mL) | 3.1 (≈ 8.4 µg/mL) | 6.3 (≈ 17.1 µg/mL) | – | – | – | – | – | – | – | – | 3.1

From PMC9917201, “Enhanced Antibacterial Activity of Substituted Derivatives of NCR169C Peptide” (International Journal of Molecular Sciences, 2023)
